Measurements from the NIST ThermoML archive (doi:10.1016/j.jct.2006.10.017).

Tests used:
[1] = refractive index (Na D-line) (dimensionless); xn = mol fraction of the nth substance listed; settings: 101 kPa, Liquid
[2] = xn = mol fraction of the nth substance listed; settings: 101 kPa, Liquid

CCO [ethanol] + CCCCCCn1cc[n+](C)c1.F[P-](F)(F)(F)(F)F
x2 = 0
Settings | mass density, 293.15 K [kg/m3] | mass density, 298.15 K [kg/m3] | mass density, 303.15 K [kg/m3] | refractive index, 293.15 K | refractive index, 298.15 K | refractive index, 303.15 K | speed of sound, 293.15 K [m/s] | speed of sound, 298.15 K [m/s] | speed of sound, 303.15 K [m/s]
[1] | – | – | – | 1.36138 | 1.35929 | 1.35725 | – | – | –
[2] | 789.3 | 785.1 | 780.7 | – | – | – | 1160 | 1143 | 1127

CCCCCCn1cc[n+](C)c1.F[P-](F)(F)(F)(F)F [1-hexyl-3-methylimidazolium hexafluorophosphate] + CCO
Settings | mass density, [2] [kg/m3] | refractive index, [1] | speed of sound, [2] [m/s]
293.15 K, x1 = 0.0198 | 830 | 1.36597 | 1164
293.15 K, x1 = 0.2033 | 1055.6 | 1.39358 | 1248
293.15 K, x1 = 0.312 | 1125.6 | 1.40092 | 1300
293.15 K, x1 = 0.3897 | 1161.8 | 1.40471 | 1329
293.15 K, x1 = 0.5002 | 1201.4 | 1.40893 | 1360
293.15 K, x1 = 0.5982 | 1228.4 | 1.41163 | 1380
293.15 K, x1 = 0.6961 | 1250.2 | 1.41394 | 1396
293.15 K, x1 = 0.7902 | 1267.6 | 1.41562 | 1410
293.15 K, x1 = 0.9033 | 1285.2 | 1.41784 | 1423
293.15 K, x1 = 0.992 | 1297 | 1.41884 | 1435
293.15 K, x1 = 1 | 1297.9 | 1.41923 | 1438
298.15 K, x1 = 0.0198 | 825.8 | 1.36482 | 1150
298.15 K, x1 = 0.0465 | 873.5 | 1.37109 | 1160
298.15 K, x1 = 0.0991 | 948.7 | 1.38024 | 1185
298.15 K, x1 = 0.2033 | 1051.6 | 1.3921 | 1237
298.15 K, x1 = 0.312 | 1121.5 | 1.39964 | 1288
298.15 K, x1 = 0.3897 | 1157.7 | 1.40388 | 1317
298.15 K, x1 = 0.5002 | 1197.2 | 1.4081 | 1348
298.15 K, x1 = 0.5982 | 1224.4 | 1.41098 | 1368
298.15 K, x1 = 0.6961 | 1246.2 | 1.41313 | 1384
298.15 K, x1 = 0.7902 | 1263.5 | 1.41472 | 1397
298.15 K, x1 = 0.9033 | 1281.1 | 1.41645 | 1410
298.15 K, x1 = 0.992 | 1292.8 | 1.41775 | 1421
298.15 K, x1 = 1 | 1293.7 | 1.41787 | 1424
303.15 K, x1 = 0.0198 | 821.8 | 1.36297 | 1134
303.15 K, x1 = 0.0465 | 869.8 | 1.36941 | 1144
303.15 K, x1 = 0.0991 | 944.8 | 1.3787 | 1169
303.15 K, x1 = 0.2033 | 1047.5 | 1.39057 | 1226
303.15 K, x1 = 0.312 | 1117.3 | 1.39816 | 1277
303.15 K, x1 = 0.3897 | 1153.6 | 1.40239 | 1306
303.15 K, x1 = 0.5002 | 1193.3 | 1.40693 | 1336
303.15 K, x1 = 0.5982 | 1220.4 | 1.40986 | 1357
303.15 K, x1 = 0.6961 | 1242.2 | 1.41197 | 1372
303.15 K, x1 = 0.7902 | 1259.5 | 1.41366 | 1386
303.15 K, x1 = 0.9033 | 1277 | 1.41525 | 1399
303.15 K, x1 = 0.992 | 1288.7 | 1.41635 | 1409
303.15 K, x1 = 1 | 1289.6 | 1.41643 | 1411

CCCCCCCC[n+]1ccn(C)c1.F[P-](F)(F)(F)(F)F [1-octyl-3-methylimidazolium hexafluorophosphate] + CCO
Settings | mass density, 293.15 K [kg/m3] | mass density, 298.15 K [kg/m3] | mass density, 303.15 K [kg/m3] | refractive index, 293.15 K | refractive index, 298.15 K | refractive index, 303.15 K | speed of sound, 293.15 K [m/s] | speed of sound, 298.15 K [m/s] | speed of sound, 303.15 K [m/s]
[1], x1 = 0.0447 | – | – | – | 1.37484 | 1.37299 | 1.37124 | – | – | –
[1], x1 = 0.0982 | – | – | – | 1.38484 | 1.38315 | 1.38286 | – | – | –
[1], x1 = 0.1976 | – | – | – | 1.3975 | 1.3959 | 1.39478 | – | – | –
[1], x1 = 0.2897 | – | – | – | 1.40449 | 1.40291 | 1.40181 | – | – | –
[1], x1 = 0.3897 | – | – | – | 1.41009 | 1.40855 | 1.40752 | – | – | –
[1], x1 = 0.499 | – | – | – | 1.41448 | 1.41289 | 1.41174 | – | – | –
[1], x1 = 0.5896 | – | – | – | 1.41703 | 1.41553 | 1.41412 | – | – | –
[1], x1 = 0.708 | – | – | – | 1.41965 | 1.41817 | 1.41682 | – | – | –
[1], x1 = 0.8037 | – | – | – | 1.4215 | 1.42004 | 1.41858 | – | – | –
[1], x1 = 0.904 | – | – | – | 1.42304 | 1.42165 | 1.42026 | – | – | –
[1], x1 = 0.9502 | – | – | – | 1.42375 | 1.42231 | 1.42112 | – | – | –
[1], x1 = 1 | – | – | – | 1.4244 | 1.42302 | 1.42165 | – | – | –
[2], x1 = 0.0447 | 873.9 | 869.7 | 865.4 | – | – | – | 1180 | 1165 | 1151
[2], x1 = 0.0982 | 946.5 | 942.3 | 938.1 | – | – | – | 1206 | 1193 | 1180
[2], x1 = 0.1976 | 1035.8 | 1031.7 | 1027.5 | – | – | – | 1257 | 1245 | 1233
[2], x1 = 0.2897 | 1089.5 | 1085.3 | 1081.1 | – | – | – | 1295 | 1283 | 1271
[2], x1 = 0.3897 | 1130.4 | 1126.3 | 1122.2 | – | – | – | 1327 | 1315 | 1303
[2], x1 = 0.499 | 1162.8 | 1158.8 | 1154.8 | – | – | – | 1352 | 1340 | 1328
[2], x1 = 0.5896 | 1183.2 | 1179.3 | 1175.3 | – | – | – | 1369 | 1357 | 1344
[2], x1 = 0.708 | 1204.3 | 1200.4 | 1196.5 | – | – | – | 1386 | 1373 | 1360
[2], x1 = 0.8037 | 1217.9 | 1214 | 1210.2 | – | – | – | 1398 | 1385 | 1372
[2], x1 = 0.904 | 1229.9 | 1226 | 1222.2 | – | – | – | 1411 | 1397 | 1383
[2], x1 = 0.9502 | 1234.7 | 1230.9 | 1227.1 | – | – | – | 1416 | 1401 | 1387
[2], x1 = 1 | 1239.6 | 1235.7 | 1231.9 | – | – | – | 1424 | 1408 | 1393

CCO [ethanol] + CCCCCCCC[n+]1ccn(C)c1.F[P-](F)(F)(F)(F)F
x2 = 0
Settings | mass density, 293.15 K [kg/m3] | mass density, 298.15 K [kg/m3] | mass density, 303.15 K [kg/m3] | refractive index, 293.15 K | refractive index, 298.15 K | refractive index, 303.15 K | speed of sound, 293.15 K [m/s] | speed of sound, 298.15 K [m/s] | speed of sound, 303.15 K [m/s]
[1] | – | – | – | 1.36138 | 1.35929 | 1.35725 | – | – | –
[2] | 789.3 | 785.1 | 780.7 | – | – | – | 1160 | 1143 | 1127
